Experimental data from patent EP1143981B1, “USE OF N-GLYCOLNEURAMINIC ACID AND ITS DERIVATIVES FOR THE MANUFACTURE OF A MEDICAMENT FOR THE TREATMENT OF HIV INFECTIONS” (Glukor, Inc., priority 1998, dated 2000).

Columns and labels:
Format in all cases: cell-based
[1] = system: HIV-1 IIIB; test: HIV-1 P24 output, repeat with stored solutions, 3 hours infection; details: day 6
Method: The test was repeated using test solutions stored at 4°C. In this experiment, the dilutions were mixed with HIV-1 IIIB virus at the time of infecting the activated human PBMCs for 3 hours. The cells then were washed and incubated in triplicate wells (1x10^3 cells/well) in the presence of the indicated dilution of the test solution. One half media changes included the test solution dilutions. Conditioned media were tested for P24 output by the antigen capture assay on day 6. Results are shown in Table 10 and are presented as the inhibition % of control (no carbohydrate added).

[2] = system: HIV-1III B; test: HIV-1 P24 output, test solution mixed with virus, PBMCs infected overnight; details: Dilution 1:10 of 5mg/ml solution, day 9
[3] = system: HIV-1 IIIB; test: HIV-1 P24 output, test solutions added post infection
Method: In addition, a similar experiment was performed, except that test solutions were added post infection, at the time of plating into the triplicate wells.

[4] = system: HIV-1III B; test: HIV-1 P24 output, test solution mixed with virus, PBMCs infected overnight; details: day 9
Method: Example 4-Specificity of Inhibition: Research grade purified d-Galactose (CAT# g404, lot 117H00431, FW 180.2, Sigma Chemical Co., St. Louis, MO) was dissolved in saline at a concentration of 5mg/ml. The solution was allowed to stand at room temperature for 15 minutes and mixed by vortex until the galactose was completely dissolved. The galactose solution was divided into two equal aliquots. Stabilizing solution (0.1 ml) was added to one aliquot, then vortexed and incubated at room temperature for 30 minutes. After mixing again, the mixture was centrifuged at 1500g for 30 minutes and the supernatant was filtered through a 0.2µm filter and transferred to a sterile 15 ml tube. The solution was sterilized by gamma radiation (2.5 mega RADs) with 15 minutes exposure. The aliquot without the stabilizing solution was labeled "1A" and the aliquot containing the stabilized solution was labeled "1B". […] Each of the test solutions were diluted 1:20 1:40,1:80, and 1:160 in saline. Control solutions were water.
One ml of each of the dilutions of the test solution or control was mixed with an equal volume of HIV-1III B (~50 TCID50 /2x10^5 cells) to infect activated human PBMCs overnight at 37°C (3x10^5 cells/dilution). HIV-1III B is a laboratory-adapted strain. The cells then were washed and placed in culture media containing the indicated dilution of the test solution in triplicate wells (1x10^3 cells per well, ½ medium changes with media containing the indicated dilutions of test solution were made at ~3 day intervals). The conditioned media were tested for HIV-1 P24 output on day 9 using the DuPont P24 assay kit. The control was infected PBMCs in the absence of test solutions. Results are shown in Table 9 and are measured as the Inhibition% of the control. […]

[5] = system: X4 strain LAI/IIIB; test: RT activity in infected PBMCs over 20 days post-infection
Method: Reverse Transcriptase Activity Assay: A microtiter based reverse transcriptase (RT) reaction was utilized as described by Buckheit et al., (1991), AIDS Research and Human Retroviruses, 7:295-302. Tritiated thymidine triphosphate (^3H-TTP) was suspended in distilled H2O at 5 Ci/mL. Poly rA and oligo dT were prepared as a stock solution which was kept at -20°C. RT reaction buffer was prepared fresh on a daily basis and contained 125 µL 1M EGTA, 125 µL dH2O, 110 µL 10% SDS, 50 µL 1M Tris (pH 7.4), 50 µL 1M DTT, and 40 µL 1M MgCl2. These three solutions were mixed together in a ratio of 2 parts ^3H-TTP, 1 part poly rA:oligo dT, and 1 part reaction buffer. Ten microliters of this reaction mixture were placed in a round bottom microtiter plate and 15 µL of virus containing supernatant were added and mixed. The plate was incubated at 37°C in a water bath with a solid support to prevent submersion of the plate and incubated for 60 minutes. After the incubation period, the reaction volume was spotted onto pieces of DE81 paper, washed 5 times for 5 minutes each in a 5% sodium phosphate buffer, 2 times for 1 minute each in distilled water, 2 times for 1 minute each in 70% ethanol, and then dried. Opti-Fluor-O (Packard) was added to each sample and incorporated radioactivity was quantified utilizing a Wallac 1450 MicroBeta Plus liquid scintillation counter. Plates were screened with tetrazolium dye staining as described above.
PBMCs were treated with dilutions of LUKOR of 1:4, 1:20, 1:100, 1:500, or 1:2500, or concentrations ofN-glycolylneuraminic acid or N-acetylneuraminic acid of 0.4, 1.2, 3.6, 11, or 33µg/ml. No carbohydrates were added to the control sample. RT activity was determined at 3, 6, 9,13, 17, and 20 days post-infection (PI) with X4 strain LAI/IIIB.

[6] = Dilution 1:10, solutions stored at 4°C
[7] = Dilution 1:20, solutions stored at 4°C
[8] = Dilution 1:40, solutions stored at 4°C
[9] = Dilution 1:80, solutions stored at 4°C
[10] = Dilution 1:160, solutions stored at 4°C
[11] = Dilution 1:10, added post infection
[12] = Dilution 1:20, added post infection
[13] = Dilution 1:20, repeat with further dilutions (Table 12)
[14] = Dilution 1:40, added post infection
[15] = Dilution 1:80, added post infection
[16] = Dilution 1:100, repeat with further dilutions (Table 12)
[17] = Dilution 1:160, added post infection
[18] = Dilution 1:1000, repeat with further dilutions (Table 12)

Molecule: O=C(CO)N[C@H]1[C@H]([C@H](O)[C@H](O)CO)OC(O)(C(=O)O)C[C@@H]1O (single isomer, unassigned) [2B, N-glycolylneuraminic acid]
- Inhibition % of Control [1, 6]: 88%
- Inhibition % of Control [1, 7]: 74%
- Inhibition % of Control [1, 8]: 59%
- Inhibition % of Control [1, 9]: 44%
- Inhibition % of Control [1, 10]: 13%
- P24 output, Inhibition% of the control [2]: 93%
- Inhibition % of Control [3, 11]: 82%
- Inhibition % of Control [3, 12]: 70%
- Inhibition % of Control [3, 13]: 78%
- Inhibition % of Control [3, 14]: 61%
- Inhibition % of Control [3, 15]: 26%
- Inhibition % of Control [3, 16]: 42%
- Inhibition % of Control [3, 17]: 15%
- Inhibition % of Control [3, 18]: 1%
- P24 output, Inhibition% of the control ([4]; Dilution 1:20): 81%
- P24 output, Inhibition% of the control ([4]; Dilution 1:40): 61%
- P24 output, Inhibition% of the control ([4]; Dilution 1:80): 37%
- P24 output, Inhibition% of the control ([4]; Dilution 1:160): 16%

Molecule: CC(=O)N[C@H]1[C@H]([C@H](O)[C@H](O)CO)OC(O)(C(=O)O)C[C@@H]1O (some centres unmarked) [N-acetylneuraminic acid, reference compound]
- RT Activity ([5]; 0.4 µg/ml, 3 days PI): 89
- RT Activity ([5]; 0.4 µg/ml, 6 days PI): 129
- RT Activity ([5]; 0.4 µg/ml, 9 days PI): 878
- RT Activity ([5]; 0.4 µg/ml, 13 days PI): 2703
- RT Activity ([5]; 0.4 µg/ml, 17 days PI): 1615
- RT Activity ([5]; 0.4 µg/ml, 20 days PI): 812
- RT Activity ([5]; 3.6 µg/ml, 3 days PI): 83
- RT Activity ([5]; 3.6 µg/ml, 6 days PI): 508
- RT Activity ([5]; 3.6 µg/ml, 9 days PI): 1902
- RT Activity ([5]; 3.6 µg/ml, 13 days PI): 1892
- RT Activity ([5]; 3.6 µg/ml, 17 days PI): 1260
- RT Activity ([5]; 3.6 µg/ml, 20 days PI): 836
- RT Activity ([5]; 11 µg/ml, 3 days PI): 43
- RT Activity ([5]; 11 µg/ml, 6 days PI): 75
- RT Activity ([5]; 11 µg/ml, 9 days PI): 799
- RT Activity ([5]; 11 µg/ml, 13 days PI): 2047
- RT Activity ([5]; 11 µg/ml, 17 days PI): 2990
- RT Activity ([5]; 11 µg/ml, 20 days PI): 1171
- RT Activity ([5]; 33 µg/ml, 3 days PI): 36
- RT Activity ([5]; 33 µg/ml, 6 days PI): 53
- RT Activity ([5]; 33 µg/ml, 9 days PI): 165
- RT Activity ([5]; 33 µg/ml, 13 days PI): 442
- RT Activity ([5]; 33 µg/ml, 17 days PI): 1273
- RT Activity ([5]; 33 µg/ml, 20 days PI): 1526
- RT activity in treated cells (summary in words) ([5]; all dilutions/concentrations, 3-20 days PI): decreased RT activity was observed only with high concentrations

Molecule: OC[C@H]1O[C@H](O[C@H]2[C@@H](O)[C@@H](CO)OC(O)[C@@H]2O)[C@H](O)[C@@H](O)[C@H]1O (stereo partly drawn) [3AA, galactose-α 1,3-galactose]
- P24 output, Inhibition% of the control [2]: 4.3%
- P24 output, Inhibition% of the control ([4]; Dilution 1:20): 3.6%
- P24 output, Inhibition% of the control ([4]; Dilution 1:40): 2.2%
- P24 output, Inhibition% of the control ([4]; Dilution 1:80): 1.4%
- P24 output, Inhibition% of the control ([4]; Dilution 1:160): 0.4%

Molecule: d-Galactose [1B]
- P24 output, Inhibition% of the control [2]: 7%
- P24 output, Inhibition% of the control ([4]; Dilution 1:20): 5%
- P24 output, Inhibition% of the control ([4]; Dilution 1:40): 3%
- P24 output, Inhibition% of the control ([4]; Dilution 1:80): 4%
- P24 output, Inhibition% of the control ([4]; Dilution 1:160): 2%

Molecule: O=C(CO)N[C@H]1[C@H]([C@H](O)[C@H](O)CO)OC(O)(C(=O)O)C[C@@H]1O (single isomer, unassigned) [2A, N-glycolylneuraminic acid]
- Inhibition % of Control [1, 6]: 96%
- Inhibition % of Control [1, 7]: 78%
- Inhibition % of Control [1, 8]: 62%
- Inhibition % of Control [1, 9]: 47%
- Inhibition % of Control [1, 10]: 17%
- inhibition at 5000 µg/mL (stock) ([2]; Human immunodeficiency virus 1, PBMC, 216 h, read-out: P24 output, Inhibition% of the control): 94%
- Inhibition % of Control [3, 11]: 95%
- Inhibition % of Control [3, 12]: 75%
- Inhibition % of Control [3, 13]: 88%
- Inhibition % of Control [3, 14]: 66%
- Inhibition % of Control [3, 15]: 30%
- Inhibition % of Control [3, 16]: 55%
- Inhibition % of Control [3, 17]: 16%
- Inhibition % of Control [3, 18]: 7%
- P24 output, Inhibition% of the control ([4]; Dilution 1:20): 78%
- P24 output, Inhibition% of the control ([4]; Dilution 1:40): 66%

Molecule: d-Galactose [1A]
- P24 output, Inhibition% of the control [2]: 4%
- P24 output, Inhibition% of the control ([4]; Dilution 1:20): 5%
- P24 output, Inhibition% of the control ([4]; Dilution 1:40): 4%
- P24 output, Inhibition% of the control ([4]; Dilution 1:80): 2%
- P24 output, Inhibition% of the control ([4]; Dilution 1:160): 2%
